10 compounds from ChEMBL document CHEMBL1201862, “PubChem BioAssay data set” (2004) can be followed below.

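Cultured in 96-well plates, cells were exposed to test compound for 48 hours across five concentrations. Here, GI50 denotes the concentration required for 50% inhibition of growth.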 The source made the active and inactive calls. Cut-off read from the data, not from the text of the source: active = GI50 up to about 1.1 µM and inactive = higher. Where only a bound is given, the exact number is not on record here.

Test systems include SR; HCT-116; CAKI-1; EKVX; UACC-257; DU-145; OVCAR-5; UO-31; RPMI-8226; SK-MEL-2; LOX IMVI; MDA-MB-435; RXF 393; MCF7; KM12; M14; UACC-62; NCI-H226; MOLT-4; HOP-92.
What all share (assay): NCI-60 cell line screen, 48 h

With `Cn1c(=O)c2ccccc2[n+]2c(-c3cccc([N+](=O)[O-])c3)csc12`, the GI50 was 18.6 µM (inactive) in the test with SR; 67.5 µM (inactive) in the test with HCT-116; 73.5 µM (inactive) in the test with CAKI-1; 25.2 µM (inactive) in the test with EKVX; > 100 µM (inactive) with UACC-257; > 100 µM (inactive) in the test on DU-145. Besides, the GI50 with OVCAR-5 is > 100 µM (inactive); in the test on UO-31, > 100 µM (inactive); in the test on RPMI-8226 it was 28.1 µM (inactive); in the test with SK-MEL-2 it was 36.4 µM (inactive); in the test on LOX IMVI, > 100 µM (inactive); with MDA-MB-435 it was 63.7 µM (inactive). Besides, the GI50 is 43.4 µM (inactive) with RXF 393; 32.6 µM (inactive) in the test on MCF7; 58.2 µM (inactive) with KM12; > 100 µM (inactive) in the test with M14; 70.3 µM (inactive) in the test with UACC-62; > 100 µM (inactive) in the test on NCI-H226. Further, the figures for the GI50 in the test with MOLT-4 and in the test on HOP-92 were 24.2 µM (inactive) and > 100 µM (inactive), respectively.

With `Nc1nn2c(=O)c3ccccc3nc2s1`, the GI50 with SR is 20.5 µM (inactive); in the test on HCT-116 it was 57.3 µM (inactive); with CAKI-1, > 100 µM (inactive); with EKVX it was > 100 µM (inactive); with UACC-257 it was > 100 µM (inactive); in the test on DU-145, > 100 µM (inactive). Also, the GI50 in the test on OVCAR-5 is > 100 µM (inactive); in the test on UO-31, 28.2 µM (inactive); in the test on RPMI-8226 it was 32.4 µM (inactive); in the test with SK-MEL-2, > 100 µM (inactive); in the test with LOX IMVI, 17.5 µM (inactive); in the test with MDA-MB-435, > 100 µM (inactive). Further, the GI50 with RXF 393 was > 100 µM (inactive); in the test on MCF7, 50.1 µM (inactive); in the test with KM12 it was > 100 µM (inactive); in the test on M14, 28.6 µM (inactive); in the test with UACC-62, > 100 µM (inactive); in the test on NCI-H226, 23.9 µM (inactive). Also, the results for the GI50 with MOLT-4 and in the test on HOP-92 were 23.3 µM (inactive) and > 100 µM (inactive), respectively.

Turning to `CCOC(=O)/C=C/CCC(C)(C)COC(C)=O`, the GI50 with SR, in the test with HCT-116, with CAKI-1, in the test with EKVX, with UACC-257 and in the test on DU-145 was > 10 µM (inactive) in each case. In addition, the GI50 with OVCAR-5, in the test with UO-31, in the test on RPMI-8226, in the test on SK-MEL-2, in the test on LOX IMVI and in the test on MDA-MB-435 was > 10 µM (inactive) each time. The GI50 with RXF 393, with MCF7, in the test on KM12, in the test on M14, in the test with UACC-62 and in the test on NCI-H226 was > 10 µM (inactive) throughout. The GI50 in the test on MOLT-4 and with HOP-92 was > 10 µM (inactive) each time.

Regarding `ClCc1nc2cc(Cl)ccc2o1`, the GI50 is 1.7 µM (inactive) in the test on SR; 6.97 µM (inactive) in the test with HCT-116; 1.65 µM (inactive) in the test with CAKI-1; 3.75 µM (inactive) in the test with EKVX; 9.16 µM (inactive) with UACC-257; 6.21 µM (inactive) with DU-145. The GI50 in the test with OVCAR-5 is 18.7 µM (inactive); with UO-31, 1.02 µM (active); in the test with RPMI-8226, 1.42 µM (inactive); in the test with SK-MEL-2 it was 5.78 µM (inactive); with LOX IMVI, 2.44 µM (inactive); with MDA-MB-435, 2.6 µM (inactive). In addition, the GI50 was 12.2 µM (inactive) with RXF 393; 2.47 µM (inactive) with MCF7; 12.3 µM (inactive) in the test on KM12; 4.31 µM (inactive) with M14; 8.15 µM (inactive) with UACC-62; 15.9 µM (inactive) in the test on NCI-H226. For the same compound, the figures for the GI50 in the test with MOLT-4 and with HOP-92 were 2.19 µM (inactive) and 1.91 µM (inactive), respectively.

As to `COC(=O)C1(c2cc3ccccc3n2S(=O)(=O)c2ccccc2)CC2C=CC1NC2` (stereo not given), the GI50 with SR is 0.216 µM (active); in the test on HCT-116, 2.23 µM (inactive); in the test on CAKI-1, 1.82 µM (inactive); in the test with EKVX, 4.03 µM (inactive); in the test on UACC-257, 2.22 µM (inactive); with DU-145 it was 2.4 µM (inactive). Moreover, the GI50 with OVCAR-5 is 2.25 µM (inactive); in the test with UO-31, 1.48 µM (inactive); with RPMI-8226, 0.933 µM (active); in the test on SK-MEL-2 it was 1.77 µM (inactive); in the test on LOX IMVI, 1.74 µM (inactive); with MDA-MB-435 it was 1.63 µM (inactive). In addition, the GI50 with RXF 393 is 1.76 µM (inactive); in the test with MCF7, 1.5 µM (inactive); in the test on KM12 it was 2.47 µM (inactive); in the test with M14 it was 1.79 µM (inactive); in the test with UACC-62, 1.62 µM (inactive); in the test with NCI-H226, 8.97 µM (inactive). Further, the GI50 with MOLT-4 is 1.62 µM (inactive); in the test on HOP-92, 1.52 µM (inactive).

In the case of `COc1ccc(C[C@H]2COC(=O)[C@@H]2Cc2ccc(Br)cc2)cc1OC`, the GI50 in the test with SR is 20.7 µM (inactive); with HCT-116 it was 19.1 µM (inactive); in the test with CAKI-1 it was 34 µM (inactive); with EKVX, 7.19 µM (inactive); in the test with UACC-257, 11.5 µM (inactive); with DU-145, 16.8 µM (inactive). Also, the GI50 is 23.4 µM (inactive) with OVCAR-5; 6.18 µM (inactive) in the test on UO-31; 17.9 µM (inactive) in the test on RPMI-8226; 19.9 µM (inactive) with SK-MEL-2; 11.2 µM (inactive) in the test on LOX IMVI; 19.5 µM (inactive) in the test on MDA-MB-435. Also, the GI50 in the test on RXF 393 is 20 µM (inactive); with MCF7, 16.6 µM (inactive); in the test on KM12, 21.9 µM (inactive); in the test on M14, 33.3 µM (inactive); with UACC-62, 27.8 µM (inactive); in the test with NCI-H226, 28.8 µM (inactive). In addition, the results for the GI50 in the test on MOLT-4 and with HOP-92 were 13 µM (inactive) and 20.2 µM (inactive), respectively.

With `CCOC(=O)C(C(=O)OCC)=C1NC2(c3ccccc3Nc3ccc(C)cc32)C(C#N)S1` (stereo not given), the GI50 in the test on SR was 2.44 µM (inactive); in the test on HCT-116 it was 5.58 µM (inactive); with CAKI-1, 11.8 µM (inactive); in the test with EKVX it was 8.83 µM (inactive); in the test with UACC-257 it was 11.3 µM (inactive); in the test with DU-145, 11.3 µM (inactive). The GI50 is 11.3 µM (inactive) with OVCAR-5; 6.28 µM (inactive) with UO-31; 2.32 µM (inactive) in the test with RPMI-8226; 8.07 µM (inactive) with SK-MEL-2; 12.1 µM (inactive) in the test on LOX IMVI; 5.65 µM (inactive) in the test with MDA-MB-435. Moreover, the GI50 with RXF 393 is 6.68 µM (inactive); in the test with MCF7 it was 3.05 µM (inactive); in the test on KM12, 4.43 µM (inactive); in the test on M14, 3.92 µM (inactive); in the test with UACC-62, 9.48 µM (inactive); in the test with NCI-H226, 11.5 µM (inactive). For the same compound, the figures for the GI50 with MOLT-4 and in the test with HOP-92 were 2.4 µM (inactive) and 4.26 µM (inactive), respectively.

For the compound `Cc1cc(Cl)ccc1Nc1nc2c(s1)C(=O)c1ccccc1C2=O`, the GI50 in the test with SR is 2.8 µM (inactive); in the test with HCT-116, 2.12 µM (inactive); with CAKI-1, 6.3 µM (inactive); in the test on EKVX, 9.04 µM (inactive); with UACC-257, 2.53 µM (inactive); with DU-145, 1.68 µM (inactive). For the same compound, the GI50 in the test on OVCAR-5 was 4.55 µM (inactive); in the test on UO-31 it was 4.45 µM (inactive); with RPMI-8226, 2.92 µM (inactive); with SK-MEL-2, 8.45 µM (inactive); in the test with LOX IMVI it was 1.53 µM (inactive); in the test with MDA-MB-435, 0.378 µM (active). The GI50 is 7.28 µM (inactive) in the test with RXF 393; 1.87 µM (inactive) with MCF7; 6.01 µM (inactive) in the test with KM12; 0.948 µM (active) in the test with M14; 2.5 µM (inactive) in the test on UACC-62; 6.34 µM (inactive) in the test with NCI-H226. For the same compound, the results for the GI50 in the test with MOLT-4 and in the test on HOP-92 were 1.86 µM (inactive) and 13.9 µM (inactive), respectively.

With `C=CCOC(=O)N1c2ccc(O[Si](C)(C)C(C)(C)C)cc2[C@@]23O[C@@]24[C@@H]1C#C/C=C\C#C[C@]3(O)C(OC)(OC)C[C@@H]4C`, the GI50 was 33.9 µM (inactive) in the test on SR; 8.38 µM (inactive) in the test with HCT-116; 2.71 µM (inactive) with CAKI-1; > 38.5 µM (inactive) in the test with EKVX; 19 µM (inactive) with UACC-257; > 80 µM (inactive) with DU-145. Also, the GI50 was > 100 µM (inactive) in the test on OVCAR-5; 14.1 µM (inactive) in the test with UO-31; 18.6 µM (inactive) in the test with RPMI-8226; > 100 µM (inactive) in the test with SK-MEL-2; 16.7 µM (inactive) in the test with LOX IMVI; > 85.1 µM (inactive) in the test with MDA-MB-435. The GI50 is 29.5 µM (inactive) with RXF 393; 10.8 µM (inactive) with MCF7; > 100 µM (inactive) in the test on KM12; > 65 µM (inactive) in the test on M14; 10.8 µM (inactive) with UACC-62; 13.6 µM (inactive) in the test with NCI-H226. Further, the GI50 with MOLT-4 is 2.89 µM (inactive); in the test with HOP-92 it was 18.2 µM (inactive).

`O=C(O)CS(=O)(=O)C(c1ccccc1)c1ccccc1`: the GI50 in the test on SR, in the test with HCT-116, in the test on CAKI-1, in the test on EKVX, with UACC-257 and in the test on DU-145 was > 100 µM (inactive) each time. The GI50 in the test with OVCAR-5, in the test with UO-31, in the test on RPMI-8226, in the test with SK-MEL-2, with LOX IMVI and with MDA-MB-435 was > 100 µM (inactive) each time. The GI50 in the test on RXF 393, in the test with MCF7, in the test on KM12, in the test on M14, in the test with UACC-62 and in the test on NCI-H226 was > 100 µM (inactive) each time. For the same compound, the GI50 in the test with MOLT-4 and in the test with HOP-92 was > 100 µM (inactive) in each case.
